Data from ChEMBL document CHEMBL5137024, “Discovery of novel coumarin-indole derivatives as tubulin polymerization inhibitors with potent anti-gastric cancer activities” (Eur J Med Chem, 2022).
The source made the active and inactive calls. The calls are words filed in the database; no cut-off is given here.

How the values were obtained:
KYSE-450 = assay: Antiproliferative activity against human KYSE-450 cells assessed as reduction in cell viability incubated for 48 hrs by MTT assay; format: functional, cell-based; conditions: KYSE-450, 48 h
EC9706 = assay: Antiproliferative activity against human EC9706 cells assessed as reduction in cell viability incubated for 48 hrs by MTT assay; format: functional, cell-based; conditions: EC9706, 48 h
PC-3 = assay: Antiproliferative activity against human PC-3 cells assessed as reduction in cell viability incubated for 48 hrs by MTT assay; format: functional, cell-based; conditions: PC-3, 48 h
DU-145 = assay: Antiproliferative activity against human DU-145 cells assessed as reduction in cell viability incubated for 48 hrs by MTT assay; format: functional, cell-based; conditions: DU-145, 48 h
[1] = Cytotoxicity against human GES1 cells assessed as reduction in cell viability incubated for 48 hrs by MTT assay; format: toxicity, cell-based
Tubulin (Homo sapiens) [2] = molecular target: T1, Tubulin (Homo sapiens) (UniProt P68371+Q9H4B7+P0DPH7+P68366+Q13509+Q71U36+P04350+Q3ZCM7+P07437+P68363+Q9BQE3+Q6PEY2+Q13885+Q9BVA1+Q9BUF5); assay: Disruption of microtubule network in human HGC-27 cells assessed as incomplete mitosis at 10 to 30 nM measured after 48 hrs by DAPI staining based fluorescence microscopic analysis; format: cell-based; conditions: dose 10-30 nM
Tubulin (Homo sapiens) [3] = molecular target: T1, Tubulin (Homo sapiens); assay: Disruption of microtubule network in human HGC-27 cells assessed as cytoskeleton disruption at 10 to 30 nM measured after 48 hrs by DAPI staining based fluorescence microscopic analysis; format: cell-based; conditions: dose 10-30 nM
HGC-27 [4] = assay: Inhibition of ERK signalling pathway in human HGC-27 cells assessed as downregulation of MEK1/2 phosphorylation at 10 to 30 nM incubated for 48 hrs; format: cell-based; conditions: dose 10-30 nM
HGC-27 [5] = assay: Inhibition of ERK signalling pathway in human HGC-27 cells assessed as downregulation of ERK1/2 phosphorylation at 10 to 30 nM incubated for 48 hrs; format: cell-based; conditions: dose 10-30 nM
MGC-803 [6] = assay: Inhibition of p38 signalling pathway in human MGC-803 cells assessed as reduction in MKK3/6 phosphorylation at 5 to 15 nM incubated for 48 hrs; format: cell-based; conditions: dose 5-15 nM
MGC-803 [7] = assay: Inhibition of p38 signalling pathway in human MGC-803 cells assessed as reduction in downstream substrate MAPKAPK2 phosphorylation at 5 to 15 nM incubated for 48 hrs; format: cell-based; conditions: dose 5-15 nM
HGC-27 [8] = assay: Inhibition of p38 signalling pathway in human HGC-27 cells assessed as reduction in p38 phosphorylation at 10 to 30 nM incubated for 48 hrs; format: cell-based; conditions: dose 10-30 nM
HGC-27 [9] = assay: Inhibition of p38 signalling pathway in human HGC-27 cells assessed as reduction in downstream substrate MAPKAPK2 phosphorylation at 10 to 30 nM incubated for 48 hrs; format: cell-based; conditions: dose 10-30 nM
MGC-803 [10] = assay: Downregulation of ATF4 expression in human MGC-803 cells incubated for 48 hrs; format: functional, cell-based; conditions: dose 5-15 nM, DDE = dose-dependent effect
MGC-803 [11] = assay: Downregulation of c-Myc expression in human MGC-803 cells incubated for 48 hrs; format: functional, cell-based; conditions: dose 5-15 nM, DDE = dose-dependent effect
MGC-803 [12] = assay: Downregulation of phosphorylated Elk-1 expression in human MGC-803 cells incubated for 48 hrs; format: functional, cell-based; conditions: dose 5-15 nM, DDE = dose-dependent effect
[13] = Induction of mitochondria mediated intrinsic apoptosis in human MGC-803 cells assessed as early apoptotic cells at 15 nM measured after 48 hrs by flow cytometry analysis (Rvb= 1.6%); format: functional
[14] = Induction of mitochondria mediated intrinsic apoptosis in human HGC-27 cells assessed as early apoptotic cells at 10 nM measured after 48 hrs by flow cytometry analysis (Rvb= 6.4%); format: functional
[15] = Induction of mitochondria mediated intrinsic apoptosis in human HGC-27 cells assessed as early apoptotic cells at 30 nM measured after 48 hrs by flow cytometry analysis (Rvb= 6.4%); format: functional
MGC-803 [16] = assay: Induction of apoptosis in human MGC-803 cells assessed as cell rounding at 5 to 15 nM incubated for 48 hrs by bright field imaging analysis; format: functional, cell-based; conditions: dose 5-15 nM
MGC-803 [17] = assay: Induction of apoptosis in human MGC-803 cells assessed as increase in cleavage caspase 3 level; format: functional, cell-based; conditions: dose 5-15 nM, DDE = dose-dependent effect
HGC-27 [18] = assay: Induction of apoptosis in human HGC-27 cells assessed as increase in cleavage caspase 7 level; format: functional, cell-based; conditions: dose 10-30 nM, DDE = dose-dependent effect
HGC-27 [19] = assay: Induction of apoptosis in human HGC-27 cells assessed as upregulation of cleavage caspase 8 level; format: functional, cell-based; conditions: dose 10-30 nM, DDE = dose-dependent effect
MGC-803 [20] = assay: Antiproliferative activity against human MGC-803 cells assessed as inhibition of cell growth at 5 to 15 nM incubated for 60 hrs; format: functional, cell-based; conditions: dose 5-15 nM
MGC-803 [21] = assay: Inhibition of colony formation in human MGC-803 cells incubated for 7 days by crystal violet staining based analysis; format: functional, cell-based; conditions: dose 2-10 nM, time 7.0 day, DDE = dose-dependent effect
HGC-27 [22] = assay: Inhibition of colony formation in human HGC-27 cells incubated for 7 days by crystal violet staining based analysis; format: functional, cell-based; conditions: dose 3-15 nM, time 7.0 day, DDE = dose-dependent effect
MGC-803 [23] = assay: Upregulation of phosphorylated Histone H3 expression in human MGC-803 cells at 5 to 15 nM incubated for 48 hrs; format: functional, cell-based; conditions: dose 5-15 nM
HGC-27 [24] = assay: Inhibition of cell migration in human HGC-27 cells assessed as reduction in wound healing rate at 10 to 30 nM incubated for 24 hrs; format: functional, cell-based; conditions: dose 10-30 nM
MGC-803 [25] = assay: Antiinvasive activity against human MGC-803 cells assessed as reduction in number of cells in membrane incubated for 48 hrs by trans well assay; format: functional, cell-based; conditions: dose 5-15 nM, DDE = dose-dependent effect
HGC-27 [26] = assay: Downregulation of MMP-9 expression in human HGC-27 cells incubated for 48 hrs; format: functional, cell-based; conditions: dose 10-30 nM, DDE = dose-dependent effect
MGC-803 [27] = assay: Antitumor activity against human MGC-803 cells xenografted BALB/c nude mouse assessed as tumor growth inhibition at 15 mg/kg, ip administered once daily for 21 days; format: functional; conditions: MGC-803, 504 h, time 21 day, read-out: TGI
[28] = Toxicity in BALB/c nude mouse xenografted with human MGC-803 cells assessed as effect on body weight at 15 to 30 mg/kg, ip administered once daily for 21 days; format: organism-based; conditions: in vivo, 504 h, dose 15-30 mg/kg, time 21 day
[29] = Toxicity in BALB/c nude mouse xenografted with human MGC-803 cells assessed as pathological changes in liver at 15 to 30 mg/kg, ip administered once daily for 21 days by Hematoxyin-eosin staining based analysis; format: organism-based; conditions: in vivo, 504 h, dose 15-30 mg/kg, time 21 day
[30] = Toxicity in BALB/c nude mouse xenografted with human MGC-803 cells assessed as pathological changes in kidney at 15 to 30 mg/kg, ip administered once daily for 21 days by Hematoxyin-eosin staining based analysis; format: organism-based; conditions: in vivo, 504 h, dose 15-30 mg/kg, time 21 day
Mus musculus [31] = assay: Upregulation of cleaved caspase -3 expression in tumor tissue of BALB/c nude mouse xenografted with human MGC-803 cells at 15 to 30 mg/kg, ip administered once daily for 21 days by Western blotting analysis; format: functional, organism-based; conditions: dose 15-30 mg/kg, time 21.0 day
Mus musculus [32] = assay: Upregulation of phosphorylated Histone H3 expression in tumor tissue of BALB/c nude mouse xenografted with human MGC-803 cells at 15 to 30 mg/kg, ip administered once daily for 21 days by Western blotting analysis; format: functional, organism-based; conditions: dose 15-30 mg/kg, time 21.0 day

CN(c1ccc2c(ccn2C)c1)c1cc(=O)oc2ccccc12
IC50 (KYSE-450): 21 nM
IC50 (EC9706): 21.8 nM
IC50 (PC-3): 34.9 nM
IC50 (DU-145): 74 nM
IC50 at 48 h [1]: 3170 nM
Activity (Tubulin (Homo sapiens) [2]): Active
Activity (Tubulin (Homo sapiens) [3]): Active
inhibition (HGC-27 [4]): Active
inhibition (HGC-27 [5]): Active
inhibition (MGC-803 [6]): Active
inhibition (MGC-803 [7]): Active
inhibition (HGC-27 [8]): Active
inhibition (HGC-27 [9]): Active
Activity (MGC-803 [10]): Dde
Activity (MGC-803 [11]): Dde
Activity (MGC-803 [12]): Dde
Activity [13]: 23.6%
Activity [14]: 8.3%
Activity [15]: 25.5%
Activity (MGC-803 [16]): Active
Activity (MGC-803 [17]): Dde
Activity (HGC-27 [18]): Dde
Activity (HGC-27 [19]): Dde
inhibition (MGC-803 [20]): Active
inhibition (MGC-803 [21]): Dde
inhibition (HGC-27 [22]): Dde
Activity (MGC-803 [23]): Active
inhibition (HGC-27 [24]): Active
Activity (MGC-803 [25]): Dde
Activity (HGC-27 [26]): Dde
inhibition in vivo at 15 mg/kg (MGC-803 [27]): 70%
Activity [28]: Non-Toxic
Activity [29]: Non-Toxic
Activity [30]: Non-Toxic
Activity (Mus musculus [31]): Active
Activity (Mus musculus [32]): Active
